Patent US9765022B2, “Disulfide compounds for delivery of pharmaceutical agents” (Tufts University, priority 2013, dated 2017)

System: 4T1-12B breast tumors
Experiment: In vivo cancer treatment, tumor growth inhibition
Set-up: species or system BALB/c mice
Details: tail-vein injection every three days, 5.5 mg/kg lipid and 330 μg/kg saporin
Protocol: Composition 31 (i.e., containing 1-O16B and saporin) and Composition 32 (i.e., containing 1-O18B and saporin) were tested for in vivo inhibiting tumor growth following the procedure described below. More specifically, BALB/c mice bearing 4T1-12B breast tumors were developed from a 4T1-12B cell suspension in DMEM supplemented with 10% FBS at a concentration of 10^7 cells/mL. An aliquot (100 μL) of the cell suspension was injected into the mammary fat pad of 4-6 week-old female BALB/c mice. The mice were sorted into four groups randomly (n=7 for treatment group, n=5 for control groups) seven days after the injection. The mice were injected through tail-vein every three days. For the treatment group, each mouse was injected with 5.5 mg/kg of 1-O16B or 1-O18B and 330 μg/kg of saporin. Tumor volumes were measured every three days.
PBS without 1-O16B, 1-O18B, and saporin was also injected as a control. Comparative studies were also conducted using saporin in PBS without 1-O16B and 1-O18B.

saporin
tumor size (Day 16): more than 120 mm^3
tumor size (Day 22): more than 250 mm^3
